What follows are compounds tested against HPK1 (Homo sapiens (Human), UniProt Q92918) (assay: HPK1 Kinase Binding Assay). Settings: active HPK1 (SignalChem M23-11G), tracer 222, LanthaScreen Eu-Anti GST antibody, one hour at 25° C.
Description: A stock solution of 1 mM test compound was prepared in DMSO. The compound plate was prepared by 3-fold and 11-point serial dilutions. 0.1 μL of the compound in DMSO was transferred from the compound plate to the white 384 well polystyrene plates. The assay buffer contained 50 mM HEPES, pH 7.5, 0.01% Tween-20, 5 mM MgCl2, 0.01% BSA, and 5 mM DTT. 5 μL of 4 nM active HPK1 (SignalChem M23-11G) prepared in the buffer was added to the plate. The enzyme concentration given was based on the given stock concentration reported by the vender. […] After one hour incubation at 25° C., the plates were read on a PHERAstar FS plate reader (BMG Labtech). Ki values were determined.

Sequence of HPK1 (Q92918 1-346 limits assumed): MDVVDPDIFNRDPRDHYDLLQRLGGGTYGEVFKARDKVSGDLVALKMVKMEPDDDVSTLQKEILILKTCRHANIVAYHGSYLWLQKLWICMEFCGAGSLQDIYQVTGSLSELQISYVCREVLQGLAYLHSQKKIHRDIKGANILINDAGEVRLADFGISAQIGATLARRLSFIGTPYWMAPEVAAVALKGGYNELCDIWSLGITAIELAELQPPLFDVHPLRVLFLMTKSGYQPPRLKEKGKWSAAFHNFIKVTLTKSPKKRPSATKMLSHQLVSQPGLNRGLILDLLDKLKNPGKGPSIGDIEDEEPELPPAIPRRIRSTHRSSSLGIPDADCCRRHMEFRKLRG

Compound | Ki
COc1cccc(F)c1-c1nccc(C(=O)Nc2cc(F)c3c(cnn3C)c2-c2cccnc2)n1 [Example 20, N-(7-Fluoro-1-methyl-4-(pyridin-3-yl)-1H-indazol-5-yl)-2-(2-fluoro-6-methoxyphenyl)pyrimidine-4-carboxamide] | < 100 nM
COc1cccc(F)c1-c1nccc(C(=O)Nc2cc(F)c3c(cnn3C)c2-c2cnn(C)c2)n1 [Example 21, N-(7-Fluoro-1-methyl-4-(1-methyl-1H-pyrazol-4-yl)-1H-indazol-5-yl)-2-(2-fluoro-6-methoxyphenyl)pyrimidine-4-carboxamide] | < 100 nM
CNC(=O)c1cc(NC(=O)c2ccnc(-c3c(F)cccc3OC)n2)c(N2CCC[C@@H](N)C2)c2cn(C)nc12 (single isomer, unassigned; peak 1) [16, Peak 1] | 500 to 5000 nM
COc1cccc(F)c1-c1nccc(C(=O)Nc2cc(F)c3nn(C)cc3c2N2CCOCC2)n1 [7, Peak 1] | < 100 nM
COc1cccc(F)c1-c1nccc(C(=O)Nc2cc(F)c3c(cnn3C)c2-c2cccc(CO)c2)n1 [Example 22, N-(7-Fluoro-4-(3-(hydroxymethyl)phenyl)-1-methyl-1H-indazol-5-yl)-2-(2-fluoro-6-methoxyphenyl)pyrimidine-4-carboxamide] | < 100 nM
COc1cccc(F)c1-c1nccc(C(=O)Nc2cc(F)c3c(cnn3C)c2N2CCCC2=O)n1 [Example 12, N-(7-Fluoro-1-methyl-4-(2-oxopyrrolidin-1-yl)-1H-indazol-5-yl)-2-(2-fluoro-6-methoxyphenyl)pyrimidine-4-carboxamide] | < 100 nM
COc1cccc(F)c1-c1nccc(C(=O)Nc2cc(F)c3c(cnn3C)c2-c2ccccc2CO)n1 [Example 23, N-(7-Fluoro-4-(2-(hydroxymethyl)phenyl)-1-methyl-1H-indazol-5-yl)-2-(2-fluoro-6-methoxyphenyl)pyrimidine-4-carboxamide] | < 100 nM
CCNC(=O)N1C[C@@H]2C[C@H]1CN2c1c(NC(=O)c2ccnc(-c3c(F)cccc3OC)n2)cc(F)c2c1cnn2C [Example 2, (1S,4S)—N-Ethyl-5-(7-fluoro-5-(2-(2-fluoro-6-methoxyphenyl)pyrimidine-4-carboxamido)-1-methyl-1H-indazol-4-yl)-2,5-diazabicyclo[2.2.1]heptane-2-carboxamide] | < 100 nM
COc1cccc(F)c1-c1nccc(C(=O)Nc2cc(F)c3nn(C)cc3c2N2C[C@@H](N)C[C@H]2CO)n1 (single isomer, unassigned; peak 1) [3, Peak 1] | < 100 nM
COc1cccc(F)c1-c1nccc(C(=O)Nc2cc(F)c3c(cnn3C)c2-c2ccccc2C)n1 (single isomer, unassigned; peak 2) [14, Peak 2] | < 100 nM
COc1cccc(F)c1-c1nccc(C(=O)Nc2cc(C)c3c(cnn3C)c2N2CCNCC2)n1 [18, Peak 2] | < 100 nM
COc1cccc(F)c1-c1nccc(C(=O)Nc2cc(F)c3c(cnn3CCO)c2N2C[C@@H]3C[C@H]2CN3)n1 [Example 25, N-(4-((1S,4S)-2,5-diazabicyclo[2.2.1]heptan-2-yl)-7-fluoro-1-(2-hydroxyethyl)-1H-indazol-5-yl)-2-(2-fluoro-6-methoxyphenyl)pyrimidine-4-carboxamide] | < 100 nM
COc1cccc(F)c1-c1nccc(C(=O)Nc2cc(F)c3c(cnn3C)c2C2CCNC2)n1 (centres unmarked) [Example 11, N-(7-Fluoro-1-methyl-4-(pyrrolidin-3-yl)-1H-indazol-5-yl)-2-(2-fluoro-6-methoxyphenyl)pyrimidine-4-carboxamide] | < 100 nM
COc1cccc(F)c1-c1nccc(C(=O)Nc2cc(F)c3c(cnn3C)c2-c2cccc(CN(C)C)c2)n1 [Example 24, N-(4-(3-((Dimethylamino)methyl)phenyl)-7-fluoro-1-methyl-1H-indazol-5-yl)-2-(2-fluoro-6-methoxyphenyl)pyrimidine-4-carboxamide] | < 100 nM
COc1cccc(F)c1-c1nccc(C(=O)Nc2cc(C#N)c3c(cnn3C)c2N2CCC[C@@H](N)C2)n1 (single isomer, unassigned; peak 2) [15, Peak 2] | < 100 nM
COc1cccc(F)c1-c1nccc(C(=O)Nc2cc(F)c3c(cnn3CCO)c2N2CC[C@@H](N)C2)n1 [Example 17, (R)—N-(4-(3-Aminopyrrolidin-1-yl)-7-fluoro-1-(2-hydroxyethyl)-1H-indazol-5-yl)-2-(2-fluoro-6-methoxyphenyl)pyrimidine-4-carboxamide] | < 100 nM
COc1cccc(F)c1-c1nccc(C(=O)Nc2cc(F)c3nn(C)cc3c2-c2ccccc2C)n1 (single isomer, unassigned; peak 1) [14, Peak 1] | < 100 nM
COc1cccc(F)c1-c1nccc(C(=O)Nc2cc(F)c3c(cnn3C)c2N2CCC[C@@H]2CN)n1 (single isomer, unassigned; peak 2) [10, Peak 2] | < 100 nM
COc1cccc(F)c1-c1nccc(C(=O)Nc2cc(C)c3nn(C)cc3c2N2CCNCC2)n1 [18, Peak 1] | < 100 nM
COc1cccc(F)c1-c1nccc(C(=O)Nc2cc(F)c3c(cnn3C)c2-n2cccn2)n1 [Example 13, N-(7-Fluoro-1-methyl-4-(1H-pyrazol-1-yl)-1H-indazol-5-yl)-2-(2-fluoro-6-methoxyphenyl)pyrimidine-4-carboxamide] | < 100 nM
COc1cccc(F)c1-c1nccc(C(=O)Nc2cc(F)c3c(cnn3C)c2N2CC(N)C2)n1 [Example 9, N-(4-(3-Aminoazetidin-1-yl)-7-fluoro-1-methyl-1H-indazol-5-yl)-2-(2-fluoro-6-methoxyphenyl)pyrimidine-4-carboxamide] | < 100 nM

Further lines, results first:

Ki | Compound
< 100 nM | COc1cccc(F)c1-c1nccc(C(=O)Nc2cc(F)c3nn(C)cc3c2N2CCN[C@@H](CO)C2)n1 [Example 33, (R)—N-(7-Fluoro-4-(3-(hydroxymethyl)piperazin-1-yl)-2-methyl-2H-indazol-5-yl)-2-(2-fluoro-6-methoxyphenyl)pyrimidine-4-carboxamide]
100 to 500 nM | COc1cccc(F)c1-c1nccc(C(=O)Nc2ccc3c(c(-c4ccccc4)nn3C)c2N2CCC(N(C)C)CC2)n1 [Example 29, N-(4-(4-(Dimethylamino)piperidin-1-yl)-1-methyl-3-phenyl-1H-indazol-5-yl)-2-(2-fluoro-6-methoxyphenyl)pyrimidine-4-carboxamide]
< 100 nM | COCCn1ncc2c(N3C[C@@H]4C[C@H]3CN4)c(NC(=O)c3ccnc(-c4c(F)cccc4OC)n3)cc(F)c21 [Example 26, N-(4-((1S,4S)-2,5-diazabicyclo[2.2.1]heptan-2-yl)-7-fluoro-1-(2-methoxyethyl)-1H-indazol-5-yl)-2-(2-fluoro-6-methoxyphenyl)pyrimidine-4-carboxamide]
< 100 nM | CNC(=O)c1ccc(OC)c(-c2nccc(C(=O)Nc3cc(F)c4c(cnn4CCOC)c3N3C[C@@H](N)C[C@H]3CO)n2)c1F [Example 39, N-(4-((2S,4S)-4-Amino-2-(hydroxymethyl)pyrrolidin-1-yl)-7-fluoro-1-(2-methoxyethyl)-1H-indazol-5-yl)-2-(2-fluoro-6-methoxy-3-(methylcarbamoyl)phenyl)pyrimidine-4-carboxamide]
< 100 nM | [2H]C([2H])([2H])Oc1ccc(C)c(F)c1-c1nccc(C(=O)Nc2cc(F)c3c(cnn3CCOC)c2N2C[C@@H](N)C[C@H]2CO)n1 [Example 37, N-(4-((2S,4S)-4-Amino-2-(hydroxymethyl)pyrrolidin-1-yl)-7-fluoro-1-(2-methoxyethyl)-1H-indazol-5-yl)-2-(2-fluoro-6-(methoxy-d3)-3-methylphenyl)pyrimidine-4-carboxamide]
< 100 nM | COCCn1ncc2c(N3C[C@@H](N)C[C@H]3CO)c(NC(=O)c3ccnc(-c4c(F)cc(N)cc4OC)n3)cc(F)c21 [Example 38, N-(4-((2S,4S)-4-Amino-2-(hydroxymethyl)pyrrolidin-1-yl)-7-fluoro-1-(2-methoxyethyl)-1H-indazol-5-yl)-2-(4-amino-2-fluoro-6-methoxyphenyl)pyrimidine-4-carboxamide]
< 100 nM | COc1cccc(F)c1-c1nccc(C(=O)Nc2cc(F)c3c(cnn3[C@@H]3CCOC3)c2N2C[C@@H](N)C[C@H]2CO)n1 [Example 32, N-(4-((2S,4S)-4-Amino-2-(hydroxymethyl)pyrrolidin-1-yl)-7-fluoro-1-((R)-tetrahydrofuran-3-yl)-1H-indazol-5-yl)-2-(2-fluoro-6-methoxyphenyl)pyrimidine-4-carboxamide]
< 100 nM | COc1cccc(F)c1-c1nccc(C(=O)Nc2ccc3c(c(-c4cnn(C)c4)nn3C)c2N2CCC(N(C)C)CC2)n1 [Example 30, N-(4-(4-(Dimethylamino)piperidin-1-yl)-1-methyl-3-(1-methyl-1H-pyrazol-4-yl)-1H-indazol-5-yl)-2-(2-fluoro-6-methoxyphenyl)pyrimidine-4-carboxamide]
< 100 nM | COc1cccc(F)c1-c1nccc(C(=O)Nc2cc(F)c3c(cnn3-c3ccncc3C#N)c2N2C[C@@H](N)C[C@H]2CO)n1 [Example 34, N-(4-((2S,4S)-4-Amino-2-(hydroxymethyl)pyrrolidin-1-yl)-1-(3-cyanopyridin-4-yl)-7-fluoro-1H-indazol-5-yl)-2-(2-fluoro-6-methoxyphenyl)pyrimidine-4-carboxamide]
< 100 nM | COCCn1ncc2c(N3C[C@@H](N)C[C@H]3CO)c(NC(=O)c3ccnc(-c4c(F)cccc4OC)n3)cc(F)c21 [Example 31, N-(4-((2S,4S)-4-Amino-2-(hydroxymethyl)pyrrolidin-1-yl)-7-fluoro-1-(2-methoxyethyl)-1H-indazol-5-yl)-2-(2-fluoro-6-methoxyphenyl)pyrimidine-4-carboxamide]
< 100 nM | COc1cccc(F)c1-c1nccc(C(=O)Nc2ccc3c(c(C)nn3C)c2N2CCC(N(C)C)CC2)n1 [Example 28, N-(4-(4-(Dimethylamino)piperidin-1-yl)-1,3-dimethyl-1H-indazol-5-yl)-2-(2-fluoro-6-methoxyphenyl)pyrimidine-4-carboxamide]
